{"source": "patent US20040171613A1", "about": "“Therapeutic agent for non-immediate type allergic diseases” (JAPAN TOBACCO INC., priority 2001, published 2004)", "key": {"CB1": {"molecular_target": "CB1 (Homo sapiens, UniProt P21554)", "sequence (P21554 whole entry, species assumed)": "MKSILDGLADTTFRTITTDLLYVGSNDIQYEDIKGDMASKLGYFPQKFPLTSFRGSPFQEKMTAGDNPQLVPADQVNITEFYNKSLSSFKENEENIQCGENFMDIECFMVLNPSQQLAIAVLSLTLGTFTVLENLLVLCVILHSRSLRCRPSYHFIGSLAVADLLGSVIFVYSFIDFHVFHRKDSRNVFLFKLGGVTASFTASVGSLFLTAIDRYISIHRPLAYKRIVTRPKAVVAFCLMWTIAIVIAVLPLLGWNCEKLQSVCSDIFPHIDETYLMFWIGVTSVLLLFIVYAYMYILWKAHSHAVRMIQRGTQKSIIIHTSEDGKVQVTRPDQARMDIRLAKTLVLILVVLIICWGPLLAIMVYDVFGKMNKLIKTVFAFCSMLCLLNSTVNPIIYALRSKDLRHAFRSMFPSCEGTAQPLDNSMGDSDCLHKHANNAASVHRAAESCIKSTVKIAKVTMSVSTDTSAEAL", "details": "from JP-A 2000-256323, Table 33; cited from earlier work"}, "antigen-induced asthma": {"tested_on": "antigen-induced asthma", "assay": "antigen-induced immediate type asthma, late-type asthma and airway hypersensitivity in guinea pigs", "assay_type": "in vivo, guinea pig", "details": "oral, compound A 10, 30, 100 mg/kg, positive controls 30 mg/kg", "procedure": "The test compound was further diluted to 20, 6 and 2 mg/mL on needed basis. As positive controls, 6 mg/mL pranlukast hydrate (extracted from Onon™ (Ono Pharmaceutical Co., Ltd.)) and 6 mg/mL prednisolone (Sigma) were similarly prepared.\nSensitization: Using an ultrasonic nebulizer (NE-U12; OMRON), a 6-weeks old male Hartley guinea pig (Kudo, Co., Ltd.) was continuously inhaled with 1% OVA (ovalbumin; Sigma)-containing physiological saline for 10 minutes per day for 8 consecutive days.\nAntigen challenge: One week after the last sensitization, 2% OVA was similarly inhaled for 5 minutes. 24 hours before and one hour after the OVA challenge, metyrapone-containing physiological saline (Aldrich, 10 mg/mL) was administered intravenously and 30 minutes before the OVA induction, pyrilamine-containing physiological saline (Sigma, 10 mg/kg) was administered intraperitoneally.\nDuring the 8 days of sensitization, the test compound was given one hour before the sensitization. On the day of the antigen challenge, the test compound was given one hour before the challenge. As solvent controls, the vehicle was similarly administered in accordance with OVA induction and physiological saline induction.\nAs positive controls, pranlukast hydrate was administered one hour before the challenge, while prednisolone was administered 16 hours and 2 hours before the challenge. The animals were fasted 16 to 18 hours before the oral administration.\nUsing total respiratory function analysis system (Pulmos-I, M.I.P.S. Company), the pre value was measured. Subsequently, specific airway resistance (hereinafter referred to as sRaw) per 100 breathes was measured one minute and 2, 4, 5, 6, 7 and 8 hours after the OVA challenge, and further once between 22 to 26 hours after the challenge, respectively. The average was used as sRaw at each measured time point. The increment ratio of sRaw was calculated by the following formula.\nIncrement ratio of sRaw (%)=[(sRaw at each measured time point −sRaw before the challenge)/(sRaw before the challenge)]×100\nTwenty-two to 26 hours after the antigen challenge, each of 0.0625, 0.125, 0.25, 0.5, 1 and 2 mg/mL solutions of physiological saline and acetylcholine (hereinafter referred to as ACh) were sequentially inhaled for one minute, until the sRaw was 2-fold or more to the baseline sRaw (sRaw after inhalation of physiological saline). Based on the ACh concentration and the concentration-resistance curve of sRaw, the ACh concentration required for the sRaw to achieve 100% increase from the baseline sRaw, i.e., PC100ACh was determined."}, "CB2 [1]": {"molecular_target": "T1, CB2 (Homo sapiens, UniProt P34972)", "set-up": "host or cells: CHO cells expressing CB2", "details": "cited from earlier work"}, "[2]": {"tested_on": "2-AG-E-induced ear swelling", "assay": "effect of compound A on 2-AG-E-induced ear swelling", "assay_type": "in vivo, mouse", "procedure": "Therefore, 2-arachidonoylglycerol ether (2-AG-E), the stable form of an endogenous ligand candidate 2-arachidonoylglycerol, and a specific CB2 agonist HU-308 were examined whether they directly induce ear swelling and compared to the ear swelling induced by arachidonic acid (AA).\nSynthetically produced 2-AG-E and HU-308 were prepared with acetone to 1 or 10% (w/v) and 10% (w/v), respectively, and AA (Sigma) was prepared with acetone to 1.25% (w/v), on needed basis. 10 μL each of these substances was applied on each side of the left ear.\nOne hour later, 10 μL each of 10% (w/v) 2-AG-E was applied on each side of the left ear."}, "CB2 [3]": {"molecular_target": "T1, CB2", "assay": "cAMP production in forskolin-stimulated hCB2-expressing CHO cells", "assay_type": "cell-based", "set-up": "expressed in transfected cells; host or cells: CHO cells"}, "[4]": {"tested_on": "DNFB-induced allergic dermatitis", "assay": "murine DNFB-induced allergic dermatitis model", "assay_type": "in vivo, mouse", "procedure": "The model is produced by repeating antigen sensitization and induction in mouse to induce contact dermatitis that involves increase of IgE antibody titer, i.e., inflammation similar to atopic dermatitis (J. Allergy Clin. Immunol., 100 (6Pt2), 39-44, December 1997).\nFurthermore, by dilution, 0.1 mg/mL and 0.01 mg/mL suspensions were prepared. In addition, as positive controls, 0.5 mg/mL, 0.2 mg/mL and 0.1 mg/mL solutions of prednisolone (Sigma) were similarly prepared.\nDuring the period from the next day of the third antigen application to the next day of the fifth antigen application, 10 mL/kg of the above-described test compound was administered once a day 15 times in total.\nThe difference of thickness was used as an index of swelling. FIGS. 1 and 2 show the results of the measurement at the fourth and fifth antigen applications, together with the results of the positive controls.\n24 hours after the fifth antigen application, the spleen was harvested from the mouse exsanguinated under anesthesia with ether. The wet weight of the spleen was measured."}}}
{"smiles": "CCCCCOc1c(OC)ccc2cc(C(=O)NCc3ccc4c(c3)OCO4)c(=O)[nH]c12", "note": "[Compound A, N-(benzo[1,3]dioxol-5-ylmethyl)-7-methoxy-2-oxo-8-pentyloxy-1,2-dihydroquinoline-3-carboxamide]", "values": [{"measurement": "IC50", "setting": "CB1", "value": 3.44, "unit": "µM"}, {"measurement": "airway hypersensitivity (PC100ACh)", "setting": "antigen-induced asthma; 22 to 26 hours after antigen challenge", "value": "suppressed"}, {"measurement": "immediate type asthma response (sRaw immediately after antigen challenge)", "setting": "antigen-induced asthma", "value": "suppressed"}, {"measurement": "late asthmatic response (sRaw over 4 to 8 hours after antigen challenge)", "setting": "antigen-induced asthma", "value": "suppressed"}, {"measurement": "forskolin-stimulated cAMP production", "setting": "CB2 [1]", "value": "elevate the production of cyclic adenosine-phosphate (cAMP)"}, {"measurement": "ear swelling induced by the application of 10% 2-AG-E (AUC day 0 to day 8)", "setting": "[2]; oral 0.01, 0.1, 1, 10 mg/kg one hour before 2-AG-E, dose-dependent", "value": "suppressed ear swelling"}, {"measurement": "ear swelling induced by 10% 2-AG-E, significance", "setting": "[2]; oral 1 or 10 mg/kg", "value": "significant effect"}, {"measurement": "effect on agonistic action of 2-AG-E", "setting": "CB2 [3]", "value": "suppress the agonistic action of 2-AG-E"}, {"measurement": "cAMP production relative to control at 0.1 µM", "setting": "CB2 [3]; CHO, read-out: Amount of cAMP production compared to control (ratio (%))", "value": 430, "unit": "%"}, {"measurement": "spleen wet weight", "setting": "[4]; 24 hours after the fifth antigen application, oral dosing", "value": "No decrease of spleen weight"}, {"measurement": "ear swelling (increase of the thickness of the ear)", "setting": "[4]; BALB/c mouse, oral once a day from day after third antigen application, 24 hours after fourth and fifth antigen application", "value": "significantly suppressed ear swelling"}]}
